For series [1], the target named is Glypican-3 (Homo sapiens) (UniProt P51654). The experiment in a line: Binding affinity to GPC3 in human HeLa cells assessed as increase in fluorescence (red color) measured after 4 hrs incubation by immunofluorescence staining based assay. It counts as cell-based.
For series [2] the target is unchanged. As to the kind of experiment: Binding affinity to GPC3 in human LX-2 cells assessed as increase in fluorescence (red color) measured after 4 hrs incubation by immunofluorescence staining based assay. It counts as cell-based.
Series [3] shares this target. As to the kind of experiment: Binding affinity to GPC3 in human Huh-7 cells assessed as increase in fluorescence (red color) by immunofluorescence staining based assay. The class given is cell-based.
Series [4] has the same target. The experiment in a line: Binding affinity to GPC3 in human Hep3B cells assessed as increase in fluorescence (red color) by immunofluorescence staining based assay. The class given is cell-based.
The nature of series [5]: Drug uptake in human Huh-7 cells assessed as green fluorescence in lysosomes measured after 30 mins co-staining with lysotracker by live cell confocal imaging analysis. The class given is ADME, cell-based. As to conditions: huh-7, 0.5 h.
The nature of series [6]: Drug uptake in human Huh-7 cells assessed as red fluorescence in inside the cells measured after 30 mins by live cell confocal imaging analysis. As to conditions: huh-7, 0.5 h. The class given is ADME, cell-based.
A further series deals with Cathepsin B (Homo sapiens, UniProt P07858). The experiment in a line: Drug metabolism assessed as human cathepsin B-mediated monomethyl auristatin E release in HEK293 cells at pH 5.5 buffer measured after 30 mins by LC-MS/MS analysis. The class given is ADME, cell-based. As to conditions: hek293, pH 5.5, 0.5 h.
The test system of another series is Hep 3B2. As to the kind of experiment: Antiproliferative activity against GPC3-positive human Hep3B cells assessed as cytotoxicity measured after 72 hrs by MTT assay. The class given is functional, cell-based.
Series [7] can be described thus: Toxicity in female BALB/c mouse xenografted with human Huh-7 cells assessed as pathological change in lung tissue at 1 mg/kg, iv followed by irradiated with 2 Gy for 2 consecutive days, once a week for 3 weeks measured on day 22. It counts as organism-based. As to conditions: in vivo, 528 h, time 22 day. Background: Xenograft models place foreign cells or tissue in a host animal.

A short description of series [8]: Toxicity in female BALB/c mouse xenografted with human Huh-7 cells assessed as pathological change in spleen tissue at 2 mg/kg, iv total 4 doses measured on day 17 by hematoxylin and eosin (H and E) staining analysis. Particulars: in vivo, 408 h, time 17 day. The class given is organism-based.
Another series deals with Huh-7. As to the kind of experiment: Antiproliferative activity against GPC3-positive human Huh-7 cells assessed as cytotoxicity measured after 72 hrs by MTT assay. The class given is functional, cell-based. Particulars: Huh-7, 72 h. A general note: Tetrazolium dyes change colour on reduction, which living cells bring about.
Series [9] in a line: Toxicity in female BALB/c mouse xenografted with human Huh-7 cells assessed as pathological change in kidney tissue at 1 mg/kg, iv followed by irradiated with 2 Gy for 2 consecutive days, once a week for 3 weeks measured on day 22. The class given is organism-based. As to conditions: in vivo, 528 h, time 22 day.
The nature of series [10]: Plasma stability in human plasma assessed as half life at 500 uM by LC-MS/MS analysis. It counts as ADME, cell-free.
A short description of series [11]: Toxicity in female BALB/c mouse xenografted with human Huh-7 cells assessed as body weight change at 0.5 to 2 mg/kg, iv total 4 doses measured on day 17. The class given is organism-based. Particulars: in vivo, 408 h, dose 0.5-2 mg/kg, time 17 day.
Series [12] can be described thus: Plasma stability in human plasma assessed as compound remaining at 500 uM measured after 48 hrs by LC-MS/MS analysis relative to control. The class given is ADME, cell-free. As to conditions: read-out: Stability.
A short description of series [13]: Stability in PBS at 500 uM measured up to 48 hrs by LC-MS/MS analysis. As to conditions: buffer. It counts as physicochemical.
Series [14] is described as follows: Toxicity in female BALB/c mouse xenografted with human Huh-7 cells assessed as pathological change in heart tissue at 2 mg/kg, iv total 4 doses measured on day 17 by hematoxylin and eosin (H and E) staining analysis. Particulars: in vivo, 408 h, time 17 day. The class given is organism-based.
A short description of series [15]: Toxicity in female BALB/c mouse xenografted with human Huh-7 cells assessed as pathological change in lung tissue at 2 mg/kg, iv total 4 doses measured on day 17 by hematoxylin and eosin (H and E) staining analysis. Particulars: in vivo, 408 h, time 17 day. The class given is organism-based.
Series [16] in a line: Toxicity in female BALB/c mouse xenografted with human Huh-7 cells assessed as pathological change in heart tissue at 1 mg/kg, iv followed by irradiated with 2 Gy for 2 consecutive days, once a week for 3 weeks measured on day 22. The class given is organism-based. As to conditions: in vivo, 528 h, time 22 day.
A short description of series [17]: Toxicity in female BALB/c mouse xenografted with human Huh-7 cells assessed as pathological change in liver tissue at 1 mg/kg, iv followed by irradiated with 2 Gy for 2 consecutive days, once a week for 3 weeks measured on day 22. The class given is organism-based. Particulars: in vivo, 528 h, time 22 day.
The subject of another series is HeLa. As to the kind of experiment: Antiproliferative activity against GPC3-negative human HeLa cells assessed as cytotoxicity measured after 72 hrs by MTT assay. The class given is functional, cell-based.
A short description of series [18]: Plasma stability in mouse plasma assessed as half life at 500 uM by LC-MS/MS analysis. It counts as ADME, cell-free.
Series [19] in a line: Toxicity in female BALB/c mouse xenografted with human Huh-7 cells assessed as body weight change at 1 mg/kg, iv followed by irradiated with 2 Gy for 2 consecutive days, once a week for 3 weeks measured on day 22. The class given is organism-based. Particulars: in vivo, 528 h, time 22 day.
In the next series the test system is LX-2. As to the kind of experiment: Antiproliferative activity against GPC3-negative human LX-2 cells assessed as cytotoxicity measured after 72 hrs by MTT assay. It counts as functional, cell-based. As to conditions: LX-2, 72 h.
Series [20] is described as follows: Toxicity in female BALB/c mouse xenografted with human Huh-7 cells assessed as pathological change in kidney tissue at 2 mg/kg, iv total 4 doses measured on day 17 by hematoxylin and eosin (H and E) staining analysis. The class given is organism-based. Particulars: in vivo, 408 h, time 17 day.
Series [21] is described as follows: Plasma stability in human plasma assessed as compound remaining at 500 uM measured after 8 hrs by LC-MS/MS analysis relative to control. It counts as ADME, cell-free. As to conditions: read-out: Stability.
Series [22] can be described thus: Toxicity in female BALB/c mouse xenografted with human Huh-7 cells assessed as pathological change in spleen tissue at 1 mg/kg, iv followed by irradiated with 2 Gy for 2 consecutive days, once a week for 3 weeks measured on day 22. It counts as organism-based. As to conditions: in vivo, 528 h, time 22 day.
Series [23] is described as follows: Toxicity in female BALB/c mouse xenografted with human Huh-7 cells assessed as pathological change in liver tissue at 2 mg/kg, iv total 4 doses measured on day 17 by hematoxylin and eosin (H and E) staining analysis. The class given is organism-based. Particulars: in vivo, 408 h, time 17 day.
Series [24] is described as follows: Plasma stability in mouse plasma assessed as compound remaining at 500 uM measured after 8 hrs by LC-MS/MS analysis relative to control. The class given is ADME, cell-free. As to conditions: read-out: Stability.

SMILES strings stand for the structures. Activity calls are given as the source filed them.

As a reminder, the IC50 is the concentration that inhibits the measured activity by half. The half-life is the time needed for the level to fall by half in the phase considered.

Glypican-3 (Homo sapiens), sequence (P51654 25-358 limits assumed): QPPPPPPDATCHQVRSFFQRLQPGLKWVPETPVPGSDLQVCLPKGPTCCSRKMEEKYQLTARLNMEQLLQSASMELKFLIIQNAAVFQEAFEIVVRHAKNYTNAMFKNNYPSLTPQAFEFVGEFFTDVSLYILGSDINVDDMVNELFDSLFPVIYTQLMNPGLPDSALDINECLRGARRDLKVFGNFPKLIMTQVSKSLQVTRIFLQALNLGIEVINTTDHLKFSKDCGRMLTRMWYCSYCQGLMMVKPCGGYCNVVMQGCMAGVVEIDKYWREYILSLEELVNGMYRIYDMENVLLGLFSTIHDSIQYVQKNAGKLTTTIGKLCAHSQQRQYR
Glypican-3 (Homo sapiens), sequence (P51654 359-554 limits assumed): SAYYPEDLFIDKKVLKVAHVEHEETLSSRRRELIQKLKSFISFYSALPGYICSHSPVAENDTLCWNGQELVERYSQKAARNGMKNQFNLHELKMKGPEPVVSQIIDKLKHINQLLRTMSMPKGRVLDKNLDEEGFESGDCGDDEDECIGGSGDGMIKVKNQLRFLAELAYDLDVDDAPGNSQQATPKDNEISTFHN

With `CC[C@H](C)[C@@H]([C@@H](CC(=O)N1CCC[C@H]1[C@H](OC)[C@@H](C)C(=O)N[C@H](C)[C@@H](O)c1ccccc1)OC)N(C)C(=O)[C@@H](NC(=O)[C@H](C(C)C)N(C)C(=O)OCc1ccc(NC(=O)[C@H](CCCNC(N)=O)NC(=O)[C@@H](NC(=O)CCCCCN2C(=O)CC(SC[C@H](NC(=O)CCCCC[N+]3=C(/C=C/C=C/C=C4\N(C)c5ccc6ccccc6c5C4(C)C)C(C)(C)c4c3ccc3ccccc43)C(=O)N[C@@H](CO)C(=O)N[C@@H](CC(N)=O)C(=O)N[C@@H](CC(=O)O)C(=O)N[C@@H](CCCNC(=N)N)C(=O)N3CCC[C@@H]3C(=O)N3CCC[C@@H]3C(=O)N[C@@H](CC(N)=O)C(=O)N[C@H](C(=O)N[C@@H](CC(C)C)C(=O)N[C@@H](CCC(N)=O)C(=O)N[C@@H](CCCCN)C(=O)N[C@@H](CCCNC(=N)N)C(N)=O)[C@@H](C)CC)C2=O)C(C)C)cc1)C(C)C` (some centres not stated), the result in [1], in series [2], in series [3] and in [4] was Active.
As to `CC[C@H](C)[C@@H]([C@@H](CC(=O)N1CCC[C@H]1[C@H](OC)[C@@H](C)C(=O)N[C@H](C)[C@@H](O)c1ccccc1)OC)N(C)C(=O)[C@@H](NC(=O)[C@H](C(C)C)N(C)C(=O)OCc1ccc(NC(=O)[C@H](CCCNC(N)=O)NC(=O)[C@H](NC(=O)CCCCCN2C(=O)CC(SC[C@H](NC(=O)CCCCC[N+]3=C(/C=C/C=C/C=C4\N(C)c5ccc6ccccc6c5C4(C)C)C(C)(C)c4c3ccc3ccccc43)C(=O)N[C@@H](CC(=O)O)C(=O)N[C@@H](Cc3ccc(O)cc3)C(=O)N[C@@H](CCC(=O)O)C(=O)N[C@@H](CCSC)C(=O)N[C@@H](Cc3cnc[nH]3)C(=O)N[C@@H](CC(C)C)C(=O)N[C@@H](Cc3c[nH]c4ccccc34)C(=O)N[C@@H](Cc3c[nH]c4ccccc34)C(=O)NCC(=O)N[C@H](C(=O)N[C@@H](CCC(=O)O)C(=O)N[C@@H](CC(C)C)C(N)=O)[C@H](C)O)C2=O)C(C)C)cc1)C(C)C` (some centres not stated), the Activity entry in series [1] and in series [4] was “Active; Compound Showed Minimal Binding” in each case. Moreover, the outcome in series [2] was Active.
`CC[C@H](C)[C@@H]([C@@H](CC(=O)N1CCC[C@H]1[C@H](OC)[C@@H](C)C(=O)N[C@H](C)[C@@H](O)c1ccccc1)OC)N(C)C(=O)[C@@H](NC(=O)[C@H](C(C)C)N(C)C(=O)OCc1ccc(NC(=O)[C@H](CCCNC(N)=O)NC(=O)[C@@H](NC(=O)CCCCCN2C(=O)CC(SC[C@H](NC(=O)CCCCC[N+]3=C(/C=C/C=C/C=C4\N(C)c5ccc6ccccc6c5C4(C)C)C(C)(C)c4c3ccc3ccccc43)C(=O)N[C@@H](CO)C(=O)N[C@@H](CC(N)=O)C(=O)N[C@@H](CC(=O)O)C(=O)N[C@@H](CCCNC(=N)N)C(=O)N3CCC[C@H]3C(=O)N3CCC[C@H]3C(=O)N[C@@H](CC(N)=O)C(=O)N[C@H](C(=O)N[C@@H](CC(C)C)C(=O)N[C@@H](CCC(N)=O)C(=O)N[C@@H](CCCCN)C(=O)N[C@@H](CCCNC(=N)N)C(N)=O)[C@@H](C)CC)C2=O)C(C)C)cc1)C(C)C` (some centres not stated): the Drug uptake entry in [5] and in series [6] was “Active” in each case.
For `CC[C@H](C)[C@@H]([C@@H](CC(=O)N1CCC[C@H]1[C@H](OC)[C@@H](C)C(=O)N[C@H](C)[C@@H](O)c1ccccc1)OC)N(C)C(=O)[C@@H](NC(=O)[C@H](C(C)C)N(C)C(=O)OCc1ccc(NC(=O)[C@H](CCCNC(N)=O)NC(=O)[C@@H](NC(=O)CCCCCN2C(=O)CC(SC[C@H](N)C(=O)N[C@@H](CO)C(=O)N[C@@H](CC(N)=O)C(=O)N[C@@H](CC(=O)O)C(=O)N[C@@H](CCCNC(=N)N)C(=O)N3CCC[C@H]3C(=O)N3CCC[C@H]3C(=O)N[C@@H](CC(N)=O)C(=O)N[C@H](C(=O)N[C@@H](CC(C)C)C(=O)N[C@@H](CCC(N)=O)C(=O)N[C@@H](CCCCN)C(=O)N[C@@H](CCCNC(=N)N)C(N)=O)[C@@H](C)CC)C2=O)C(C)C)cc1)C(C)C` (some centres not stated), the Drug metabolism result on Cathepsin B was “metabolite_detected”. For the same compound, the IC50 in the series with Hep 3B2 was 12.2 nM; in the series on Huh-7 it was 1.91 nM; with HeLa, greater than 100 nM; with LX-2, greater than 100 nM. In addition, the Activity entry in series [7], in series [8], in [9], in series [11], in series [14] and in series [15] was “Non-toxic” each time. Besides, the Activity entry in series [16], in [17], in series [19], in series [20], in [22] and in series [23] was “Non-toxic” each time. Also, the half-life at 500 µM in [10] was 8.8 h; in series [18], 4 h. For the same compound, in series [12], the remaining at 48 h, 500 µM came out at 25.3%. Also, in [13], the Stability result is on record as “Stable”. Further, the remaining at 8 h, 500 µM was determined as 57.2% in [21] and 19.9% in series [24].

These data come from ChEMBL document CHEMBL6182945, “MMAE-Based Peptide-Drug Conjugates Targeting GPC3 for Precision Chemoradiotherapy in Hepatocellular Carcinoma” (J Med Chem, 2025).
